Like-named read-outs stand apart in the source and are kept apart here.
Experiments:
[1] = tested on: luciferase-expressing Pichia pastoris; type: cell-based; conditions: 8 hours
Description: Transformation was performed using Pichia pastoris distributed by Biotechnology Center, National Institute of Technology and Evaluation, whereby luciferase-expressing microorganisms were produced. A vector pPICZ a (Thermo Fisher Scientific) was digested with XhoI and XbaI, and a synthetic (synthesized by Thermo Fisher Scientific on commission) luciferase gene having an XhoI cut site at one end and an XbaI cut site at the other end was inserted into the vector. The microorganisms were transformed by the luciferase gene-inserted pPICZ a according to the method described in an instruction manual of pPICZ a. The luciferase-expressing microorganisms were inoculated using a platinum loop into BMGY broth, and were shake-cultured at 200 rpm at 30° C. for 15 hours. Then, the thus-obtained broth was resuspended in 125-ml BMGY broth (yeast extract 1 wt % (Difco), bacto peptone 2 wt % (Difco), yeast nitrogen base w/o amino acid 1.34 wt % (Difco), glucose 2 wt %, and 100 mM potassium hydrogen phosphate; pH: 6.0) to a final OD of 0.1 OD/ml. Further, the resuspended broth was continued to be shake-cultured at 1100 rpm at 30° C. for about 17 hours until OD was 20 to 30. When OD was 20 to 30, the broth was centrifuged (1500 g, 10 min), and resuspended in 125-ml BMMY broth, followed by culturing at 1100 rpm at 30° C. for 2 hours.
Two hours later, the surfactant described in Table 2 was added to the broth in the amount (wt %) described in Table 2, and the broth was cultured at 1100 rpm at 30° C. for 8 hours. Subsequently, the broth was sampled for measuring the optical density (optical density at the end of culturing) and for measuring the secretion efficiency. Then, these samples were subjected to centrifugation using a centrifuge to separate bacteria and the supernatant from the broth. Then, the supernatant and the bacteria were collected.
The broth obtained in each of Examples 1 to 22 and Comparative Examples 1 and 2 was 10 to 1000-fold diluted in a 0.2 M Tris-HCl buffer (pH 7.4), and 20 μl of the dilution was mixed with 60 μl of a luciferin solution described below to obtain a sample. The emission intensity of the sample was measured using a luminometer under the following conditions, and the measured emission intensity was substituted into the following formula. The resulting value was regarded as the luciferase activity of the secreted and produced useful substance.
Luminometer: “Glomax Navigator” available from Promega Corporation Luciferin solution: product of New England Biolabs Japan Inc. Measurement temperature: 25° C. Detector: emission detector Detection wavelength: 350 to 700 nm
(Luciferase activity of secreted and produced useful substance)=(Emission intensity)×dilution factor/(optical density at the end of culturing)
The bacteria obtained in each of Examples 1 to 22 and Comparative Examples 1 and 2 were mixed with a 0.2 M Tris-HCl buffer (pH 7.4) in an amount of 200 μl that is equal to the amount of the removed supernatant, followed by centrifugation, whereby the bacteria were washed. The washed bacteria were resuspended in a 0.2 M Tris-HCl buffer (pH 7.4) in an amount of 200 μl that is equal to the amount of the washed supernatant, and 10 to 1000-fold diluted in a 0.2 M Tris-HCl buffer (pH 7.4). The resulting dilution was used as a sample for measuring the luciferase activity on the bacterial surface.
Then, 20 μl of the sample for measuring the luciferase activity on the bacterial surface was mixed with 60 μl of the luciferin solution to obtain a sample. The emission intensity of the sample was measured under the same conditions as for “Measurement of luciferase activity of secreted and produced useful substance”, and the measured emission intensity was substituted into the following formula. The resulting value was regarded as the luciferase activity of the useful substance remaining on the bacterial surface. […]

physchem = conditions: pKa of the ionizable group in water at 25° C., two values where two ionizable groups
Description: (§1) The pKa of the ionizable group in water is a value determined at 25° C.

[2] = pKa of the ionizable group of the surfactant in water; conditions: two values where two ionizable groups
Description: as §1

[3] = surfactant 0.03 wt % of broth, Examples 13, 16-22

Compound	Secretion efficiency (%) [1, 3]	also measured
CCCCCCCCCCCCNCCC(=O)O	80%	Secretion efficiency (%) ([1]; surfactant 0.003 wt % of broth, Example 12): 64%; Secretion efficiency (%) ([1]; surfactant 0.3 wt % of broth, Example 14): 84%; Secretion efficiency (%) ([1]; surfactant 3 wt % of broth, Example 15): 67%
CCCCCCCCCCCC[N+](C)(C)C.[Cl-] [Surfactant (A2-1), lauryl trimethyl ammonium chloride]	88%	pKa (physchem): 14
CCCCCCCCCCCC[N+](C)(C)CCCS(=O)(=O)O.[OH-] [Surfactant (A3-3), dodecyldimethyl(3-sulfopropyl)ammonium hydroxide]	75%	
CCCCCCCCCCCCCCCCOP(=O)([O-])OCC[N+](C)(C)C [Surfactant (A3-4), miltefosine, reference compound]	66%	
CCCCCCCCCCCC[N+](C)(C)CC(=O)[O-] [Surfactant (A3-5), betaine lauryldimethylaminoacetate]	90%	
sodium (2-dodecylamino)ethanesulfonate [Surfactant (A3-1)]	62%	
sodium polyoxyethylene (average 2.5 mol adduct) lauryl ether sulfate [Surfactant (A1-1)]	66%	pKa of the ionizable group in water at 25° C. [2]: 2.0
sodium polyoxyethylene (average 3 mol adduct) lauryl ether acetate [Surfactant (A1-2)]	64%	pKa of the ionizable group in water at 25° C. [2]: 3.6
